# Measurements: patent US11590188B2, “Composition for the treatment of urinary tract infections” (priority 2020, dated 2023)
# Like-named read-outs stand apart in the source and are kept apart here.
# Tests used:
# [1] = Earlier antibiotic treatment of the Example 2 subjects; assay type: in vivo, human; details: 500 mg twice daily
# Description: This can be compared to the subjects' situation before the study.
# [2] = single ingredient, doses of 15-24 grams/day; cited from earlier work
Structure (SMILES),Side effects ([1]; 6-9 months),Recurrence of UTI symptoms ([1]; after 6-9 months),Side effects [2]
CC1=C(C(=O)O)N2C(=O)[C@@H](NC(=O)[C@H](N)c3ccccc3)[C@H]2SC1 [Cephalexin],"nausea, diarrhoea and yeast infections (oral and vaginal)",UTI symptoms had reoccurred after the course of antibiotics was completed,
O=C[C@@H](O)[C@@H](O)[C@H](O)[C@H](O)CO [D-mannose],,,"bloating, gas and diarrhea"
